US11944622B2 (Annapurna Bio, Inc., priority 2018, dated 2024)

target: T1, APJ Receptor (Homo sapiens, UniProt P35414); assay: APJ cAMP assay (DiscoverX enzyme fragment complementation; inhibition of forskolin-stimulated cAMP); format: cell-based; settings: CHO-K1 cell line stably expressing the APJ Receptor; EC80 forskolin; 30 minutes at 37° C.; read-out: Potency Range (APJ cAMP EC50)
T1 sequence (P35414 1-380): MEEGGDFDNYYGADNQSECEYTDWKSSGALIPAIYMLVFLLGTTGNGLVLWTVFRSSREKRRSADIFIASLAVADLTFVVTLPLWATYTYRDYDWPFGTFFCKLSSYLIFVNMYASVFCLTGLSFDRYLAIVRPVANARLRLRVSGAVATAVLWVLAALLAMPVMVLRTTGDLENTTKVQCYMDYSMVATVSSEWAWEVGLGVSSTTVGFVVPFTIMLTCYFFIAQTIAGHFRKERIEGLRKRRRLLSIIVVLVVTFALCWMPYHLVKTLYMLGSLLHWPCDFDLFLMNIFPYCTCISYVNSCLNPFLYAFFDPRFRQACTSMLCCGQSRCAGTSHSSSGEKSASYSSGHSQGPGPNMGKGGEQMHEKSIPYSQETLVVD
How it was run: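 CHO-K1 cells stably expressing APJ incubated with compound plus EC80 forskolin for 30 min at 37° C. cAMP detected by β-galactosidase enzyme fragment complementation with chemiluminescent read-out; % activity calculated relative to vehicle and maximal controls.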

EC50 | SMILES
1 to 100 nM | CCOc1cccc(-c2nc3nc(CC)c(NS(C)(=O)=O)nc3n2-c2c(OC)cccc2OC)n1 [Example 86, N-(1-(2,6-dimethoxyphenyl)-2-(6-ethoxypyridin-2-yl)-5-ethyl-1H-imidazo[4,5-b]pyrazin-6-yl)methanesulfonamide]
1 to 100 nM | CCOc1cccc(-c2nc3ncc(NS(=O)(=O)Cc4ccccn4)nc3n2-c2c(OC)cccc2OC)n1 [Example 27, N-(1-(2,6-dimethoxyphenyl)-2-(6-ethoxypyridin-2-yl)-1H-imidazo[4,5-b]pyrazin-6-yl)-1-(pyridin-2-yl)methanesulfonamide]
100 to 10000 nM | CCOc1cccc(-c2nc3nc(OC4CC4)c(NS(C)(=O)=O)nc3n2-c2c(OC)cccc2OC)n1 [Example 89, N-(5-Cyclopropoxy-1-(2,6-dimethoxyphenyl)-2-(6-ethoxypyridin-2-yl)-1H-imidazo[4,5-b]pyrazin-6-yl)methanesulfonamide]
100 to 10000 nM | CCOc1cccc(-c2nc3ncc(NS(C)(=O)=O)nc3n2-c2c(OC)ccnc2OC)n1 (atropisomer, axis not shown) [Example 85, N-(1-(2,4-Dimethoxypyridin-3-yl)-2-(6-ethoxypyridin-2-yl)-1H-imidazo[4,5-b]pyrazin-6-yl)methanesulfonamide]
1 to 100 nM | CCOc1cccc(-c2nc3ncc(NS(=O)(=O)CC4CCNCC4)nc3n2-c2c(OC)cccc2OC)n1 [Example 38, N-(1-(2,6-dimethoxyphenyl)-2-(6-ethoxypyridin-2-yl)-1H-imidazo[4,5-b]pyrazin-6-yl)-1-(piperidin-4-yl)methanesulfonamide]
100 to 10000 nM | CCOc1cccc(-c2nc3ncc(N(C)S(C)(=O)=O)nc3n2-c2c(OC)cccc2OC)n1 [Example 32, N-(1-(2,6-dimethoxyphenyl)-2-(6-ethoxypyridin-2-yl)-1H-imidazo[4,5-b]pyrazin-6-yl)-N-methylmethanesulfonamide]
1 to 100 nM | CCOc1cccc(-c2nc3nc(Cl)c(NS(C)(=O)=O)nc3n2-c2c(OC)cccc2OC)n1 [Example 64, N-(5-chloro-1-(2,6-dimethoxyphenyl)-2-(6-ethoxypyridin-2-yl)-1H-imidazo[4,5-b]pyrazin-6-yl)methanesulfonamide]
1 to 100 nM | CCOc1cccc(-c2nc3ncc(NS(C)(=O)=O)nc3n2-c2c(OC)ccnc2OC)n1 [Example 68, N-(1-(2,4-dimethoxypyridin-3-yl)-2-(6-ethoxypyridin-2-yl)-1H-imidazo[4,5-b]pyrazin-6-yl)methanesulfonamide]
1 to 100 nM | CCOc1cccc(-c2nc3nc(N)cnc3n2-c2c(OC)cccc2OC)n1 [Example 16, 1-(2,6-dimethoxyphenyl)-2-(6-ethoxypyridin-2-yl)-1H-imidazo[4,5-b]pyrazin-5-amine]
< 1 nM | CCOc1cccc(-c2nc3nc(NS(=O)(=O)CC4(O)CNC4)cnc3n2-c2c(OC)cccc2OC)n1 [Example 93, N-(1-(2,6-Dimethoxyphenyl)-2-(6-ethoxypyridin-2-yl)-1H-imidazo[4,5-b]pyrazin-5-yl)-1-(3-hydroxyazetidin-3-yl)methanesulfonamide]
1 to 100 nM | CCOc1cccc(-c2nc3ncc(NS(=O)(=O)CC4CC4)nc3n2-c2c(OC)cccc2OC)n1 [Example 4, 1-cyclopropyl-N-(1-(2,6-dimethoxyphenyl)-2-(6-ethoxypyridin-2-yl)-1H-imidazo[4,5-b]pyrazin-6-yl)methanesulfonamide]
1 to 100 nM | CCOc1cccc(-c2nc3nc(Cl)c(NS(=O)(=O)c4ccc(C(F)F)cc4)nc3n2-c2c(OC)cccc2OC)n1 [Example 106, N-(5-Chloro-1-(2,6-dimethoxyphenyl)-2-(6-ethoxypyridin-2-yl)-1H-imidazo[4,5-b]pyrazin-6-yl)-4-(difluoromethyl)benzenesulfonamide]
< 1 nM | CCOc1cccc(-c2nc3ncc(NS(=O)(=O)CCC4CC4)nc3n2-c2c(OC)cccc2OC)n1 [Example 29, 2-cyclopropyl-N-(1-(2,6-dimethoxyphenyl)-2-(6-ethoxypyridin-2-yl)-1H-imidazo[4,5-b]pyrazin-6-yl)ethanesulfonamide]
100 to 10000 nM | CCOc1cccc(-c2nc3nc(N4CC(O)C4)c(NS(C)(=O)=O)nc3n2-c2c(OC)cccc2OC)n1 [Example 136, N-(1-(2,6-Dimethoxyphenyl)-2-(6-ethoxypyridin-2-yl)-5-(3-hydroxyazetidin-1-yl)-1H-imidazo[4,5-b]pyrazin-6-yl)methanesulfonamide]
< 1 nM | CCOc1cccc(-c2nc3ncc(NS(=O)(=O)C[C@H]4CCN(C)C(=O)C4)nc3n2-c2c(OC)cccc2OC)n1 [Example 71, (S)—N-(1-(2,6-Dimethoxyphenyl)-2-(6-ethoxypyridin-2-yl)-1H-imidazo[4,5-b]pyrazin-6-yl)-1-(1-methyl-2-oxopiperidin-4-yl)methanesulfonamide]
100 to 10000 nM | CCOc1cccc(-c2nc3ncc(C#Cc4ccccc4)nc3n2-c2c(OC)cccc2OC)n1 [Example 6, 1-(2,6-dimethoxyphenyl)-2-(6-ethoxypyridin-2-yl)-6-(phenylethynyl)-1H-imidazo[4,5-b]pyrazine]
1 to 100 nM | CCOc1cccc(-c2nc3ncc(NS(C)(=O)=O)nc3n2-c2c(F)cccc2OC)n1 [Example 50]
1 to 100 nM | CCOc1cccc(-c2nc3nc(Cl)c(NS(=O)(=O)c4ccc(F)cn4)nc3n2-c2c(OC)cccc2OC)n1 [Example 99, N-(5-Chloro-1-(2,6-dimethoxyphenyl)-2-(6-ethoxypyridin-2-yl)-1H-imidazo[4,5-b]pyrazin-6-yl)-5-fluoropyridine-2-sulfonamide]

Second part, the molecule before the results:

SMILES | EC50
CCOc1cccc(-c2nc3ncc(NS(=O)(=O)c4ncccn4)nc3n2-c2c(OC)cccc2OC)n1 [Example 41, N-(1-(2,6-dimethoxyphenyl)-2-(6-ethoxypyridin-2-yl)-1H-imidazo[4,5-b]pyrazin-6-yl)pyrimidine-2-sulfonamide] | 1 to 100 nM
CC#CCS(=O)(=O)Nc1cnc2nc(-c3cccc(OCC)n3)n(-c3c(OC)cccc3OC)c2n1 [Example 82, N-(1-(2,6-Dimethoxyphenyl)-2-(6-ethoxypyridin-2-yl)-1H-imidazo[4,5-b]pyrazin-6-yl)but-2-yne-1-sulfonamide] | 1 to 100 nM
CCOc1cccc(-c2nc3nc(Cl)c(NS(=O)(=O)Cc4ncccn4)nc3n2-c2c(OC)cccc2OC)n1 [Example 109, N-(5-Chloro-1-(2,6-dimethoxyphenyl)-2-(6-ethoxypyridin-2-yl)-1H-imidazo[4,5-b]pyrazin-6-yl)-1-(pyrimidin-2-yl)methanesulfonamide] | 1 to 100 nM
CCOc1cccc(-c2nc3nc(CCC4CC4)c(NS(C)(=O)=O)nc3n2-c2c(OC)cccc2OC)n1 [Example 66, N-(5-(2-cyclopropylethyl)-1-(2,6-dimethoxyphenyl)-2-(6-ethoxypyridin-2-yl)-1H-imidazo[4,5-b]pyrazin-6-yl)methanesulfonamide] | < 1 nM
CCOc1cccc(-c2nc3nc(Cl)c(NS(=O)(=O)C4CC4)nc3n2-c2c(OC)cccc2OC)n1 [Example 97, N-(5-Chloro-1-(2,6-dimethoxyphenyl)-2-(6-ethoxypyridin-2-yl)-1H-imidazo[4,5-b]pyrazin-6-yl)cyclopropanesulfonamide] | 1 to 100 nM
CCOc1cccc(-c2nc3nnc(NS(=O)(=O)Cc4ncc(C)cn4)cc3n2-c2c(OC)cccc2OC)n1 [Example 126, N-(7-(2,6-Dimethoxyphenyl)-8-(6-ethoxypyridin-2-yl)-7H-imidazo[4,5-c]pyridazinyl)-1-(5-methylpyrimidin-2-yl)methanesulfonamide] | < 1 nM
COc1cccc(-c2nc3ncc(NS(C)(=O)=O)nc3n2-c2c(OC)cccc2OC)n1 [Example 51, N-(1-(2,6-dimethoxyphenyl)-2-(6-methoxypyridin-2-yl)-1H-imidazo[4,5-b]pyrazin-6-yl)methanesulfonamide] | 1 to 100 nM
CCOc1cccc(-c2nc3ncc(NS(=O)(=O)Cc4ccc(C)cn4)nc3n2-c2c(OC)cccc2OC)n1 [Example 83, N-(1-(2,6-Dimethoxyphenyl)-2-(6-ethoxypyridin-2-yl)-1H-imidazo[4,5-b]pyrazin-6-yl)-1-(5-methylpyridin-2-yl)methanesulfonamide] | < 1 nM
CCOc1cccc(-c2nc3nc(Cl)c(NS(=O)(=O)Cc4ccc(F)cc4)nc3n2-c2c(OC)cccc2OC)n1 [Example 108, N-(5-Chloro-1-(2,6-dimethoxyphenyl)-2-(6-ethoxypyridin-2-yl)-1H-imidazo[4,5-b]pyrazin-6-yl)-1-(4-fluorophenyl)methanesulfonamide] | < 1 nM
CCOc1cccc(-c2nc3ncc(NS(=O)(=O)C4CC4)nc3n2-c2c(OC)cccc2OC)n1 [Example 22, N-(1-(2,6-dimethoxyphenyl)-2-(6-ethoxypyridin-2-yl)-1H-imidazo[4,5-b]pyrazin-6-yl)cyclopropanesulfonamide] | 1 to 100 nM
CCOc1cccc(-c2nc3nc(C)c(NS(C)(=O)=O)nc3n2-c2c(OC)cccc2OC)n1 [Example 87, N-(1-(2,6-Dimethoxyphenyl)-2-(6-ethoxypyridin-2-yl)-5-methyl-1H-imidazo[4,5-b]pyrazin-6-yl)methanesulfonamide] | 1 to 100 nM
CCOc1cccc(-c2nc3ncc(CCc4ccccc4)nc3n2-c2c(OC)cccc2OC)n1 [Example 7, 1-(2,6-dimethoxyphenyl)-2-(6-ethoxypyridin-2-yl)-6-phenethyl-1H-imidazo[4,5-b]pyrazine] | 1 to 100 nM
CCOc1cccc(-c2nc3ncc(NS(C)(=O)=O)cc3n2-c2c(OC)cccc2OC)n1 [Example 20, N-(1-(2,6-dimethoxyphenyl)-2-(6-ethoxypyridin-2-yl)-1H-imidazo[4,5-b]pyridin-6-yl)methanesulfonamide] | 1 to 100 nM
